Data from patent US7709497B2, “Pyrazolo[3,4-b]pyridine compound, and its use as a PDE4 inhibitor” (Glaxo Group Limited, priority 2004, dated 2010).

Legend:
[1] = target: T1, PDE4B (human recombinant) (Homo sapiens, UniProt Q07343); assay: PDE4B inhibition, IMAP Fluorescence Polarisation (FP) assay; assay type: biochemical; settings: n = 2; accuracy ±about 0.5 log unit; read-out: PDE4B pIC50 (FP assay, mean value) (converted)
T1 construct: made in house; host or cells: Saccharomyces cerevisiae strain GL62 (PDE-deficient yeast)
Text: Human recombinant PDE4B, in particular the 2B splice variant thereof (HSPDE4B2B), is disclosed in WO 94/20079 and also M. M. McLaughlin et al., “A low Km, rolipram-sensitive, cAMP-specific phosphodiesterase from human brain: cloning and expression of cDNA, biochemical characterisation of recombinant protein, and tissue distribution of mRNA”, J. Biol. Chem., 1993, 268, 6470-6476. […]
The ability of compounds to inhibit catalytic activity at PDE4B (human recombinant) or PDE4D (human recombinant) can optionally be determined by IMAP Fluorescence Polarisation (FP) assay (IMAP Explorer kit, available from Molecular Devices Corporation, Sunnydale, Calif., USA; Molecular Devices code: R8062) in a 384-well format.
The IMAP FP assay is able to measure PDE activity in an homogenous, non-radioactive assay format. […] Binding of Fl-AMP product to the beads (coated with the immobilised trivalent cations) slows the rotation of the bound Fl-AMP and leads to an increase in the fluorescence polarisation ratio of parallel to perpendicular light. […]
Biological Data obtained for Example 1 and/or Example 1A (i.e. the compound of formula (I)) (PDE4B and PDE4D inhibitory activities, usually as an average of more than one reading) are as follows, based on current measurements only, and using the above or similar or analogous assay methods. […]

[2] = test system: TNF-α (TNF-alpha) production in Human Whole Blood; assay: Inhibition of TNF-α production in Human Whole Blood; assay type: cell-based; settings: LPS-stimulated, n=6, read-out: Inhibition of TNF-α production in Human Whole Blood pIC50 (converted)
Protocol: This is an optional supplementary test, e.g. for potentially orally-administrable PDE4 inhibitors. Also, as the assay measures the effect of PDE4 inhibitors after loss by protein binding, it might also be relevant to externally-topically-administrable PDE4 inhibitors as protein-binding-loss of compound is possible during transport through the skin.
Test compounds are prepared as a ca. 10 mM stock solution in DMSO and a dilution series prepared in DMSO with 8 successive 3-fold dilutions, either directly from the 10 mM stock solution or from a more dilute solution in DMSO. The compound is added to assay plates using a Biomek Fx liquid handling robot.
Heparinised blood drawn from normal volunteers is dispensed (ca. 100 μl=ca. 100 ul) into microtitre plate wells containing ca. 0.5 or ca. 1.0 μl (ul, microliters) of an appropriately diluted test compound solution. […] Plasma TNFα content is determined by electrochemiluminescence assay using the IGEN technology (see below) or by enzyme linked immunosorbant assay (ELISA) (see below).
Ca. […] 50 μl (ul) of streptavidin/biotinylated anti-TNF-α antibody mix, ca. 25 μl ruthenium tagged anti-TNF-α monoclonal and ca. 100 μl PBS containing 0.1% bovine serum albumin are added to each well and the plates are sealed and shaken for ca. 2 hours before being read on an IGEN instrument. […]

T1 sequence (Q07343 1-564 isoform Q07343-2): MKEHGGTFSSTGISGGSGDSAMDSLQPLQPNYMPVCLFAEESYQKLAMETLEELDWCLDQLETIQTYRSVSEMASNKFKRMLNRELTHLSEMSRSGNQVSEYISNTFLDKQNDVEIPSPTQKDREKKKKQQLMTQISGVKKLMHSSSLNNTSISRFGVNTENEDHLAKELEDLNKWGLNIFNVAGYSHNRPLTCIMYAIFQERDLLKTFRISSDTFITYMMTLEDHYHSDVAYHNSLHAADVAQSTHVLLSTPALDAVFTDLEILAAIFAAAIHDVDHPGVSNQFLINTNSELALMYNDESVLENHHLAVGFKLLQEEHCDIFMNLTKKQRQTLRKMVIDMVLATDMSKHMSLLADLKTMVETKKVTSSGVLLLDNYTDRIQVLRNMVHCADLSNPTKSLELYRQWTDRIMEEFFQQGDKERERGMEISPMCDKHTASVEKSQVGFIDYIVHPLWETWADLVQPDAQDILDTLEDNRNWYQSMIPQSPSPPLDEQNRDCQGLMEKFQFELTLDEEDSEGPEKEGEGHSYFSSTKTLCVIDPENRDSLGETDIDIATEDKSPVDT

IC50 [1]: 0.676 nM
IC50 [2]: 7.41 nM
Structure (SMILES): CCn1ncc2c(NC3CCN(C(N)=O)CC3)c(C(=O)NCc3ccc(C)c(C)c3)cnc21 [compound of formula (I), 4-{[1-(aminocarbonyl)-4-piperidinyl]amino}-N-[(3,4-dimethylphenyl)methyl]-1-ethyl-1H-pyrazolo[3,4-b]pyridine-5-carboxamide]
